Results from PubChem BioAssay (NCI).
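Exposure lasted 48 hours, with cells grown in 96-well plates and compounds tested at five concentrations. At the TGI there is no net growth.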

Key:
Assay in all cases: NCI-60 cell line screen, 48 h
HT29 colon = system: HT29 colon
HOP-62 NSCLC = system: HOP-62 NSCLC
HCT-116 colon = system: HCT-116 colon
NCI-H23 lung = system: NCI-H23 lung
MDA-MB-435 = system: MDA-MB-435
SR leukemia = system: SR leukemia
CAKI-1 renal = system: CAKI-1 renal
SNB-75 CNS = system: SNB-75 CNS
SN12C renal = system: SN12C renal
T-47D breast = system: T-47D breast
UACC-62 melanoma = system: UACC-62 melanoma
SK-MEL-28 melanoma = system: SK-MEL-28 melanoma
K-562 leukemia = system: K-562 leukemia
SF-295 CNS = system: SF-295 CNS
SNB-19 CNS = system: SNB-19 CNS
MDA-N = system: MDA-N
ACHN renal = system: ACHN renal
OVCAR-5 ovarian = system: OVCAR-5 ovarian
HOP-92 NSCLC = system: HOP-92 NSCLC
786-0 renal = system: 786-0 renal
SK-OV-3 ovarian = system: SK-OV-3 ovarian
SF-539 CNS = system: SF-539 CNS
SF-268 CNS = system: SF-268 CNS
MDA-MB-231 breast = system: MDA-MB-231 breast
MALME-3M melanoma = system: MALME-3M melanoma
A549 NSCLC = system: A549 NSCLC
SW-620 colon = system: SW-620 colon
KM12 colon = system: KM12 colon
BT-549 breast = system: BT-549 breast
UACC-257 melanoma = system: UACC-257 melanoma
TK-10 renal = system: TK-10 renal
CCRF-CEM leukemia = system: CCRF-CEM leukemia
U251 CNS = system: U251 CNS
OVCAR-3 ovarian = system: OVCAR-3 ovarian
HCT-15 colon = system: HCT-15 colon
M14 melanoma = system: M14 melanoma
PC-3 prostate = system: PC-3 prostate
HCC-2998 colon = system: HCC-2998 colon
MCF7 breast = system: MCF7 breast
DU-145 prostate = system: DU-145 prostate
MOLT-4 leukemia = system: MOLT-4 leukemia
OVCAR-4 ovarian = system: OVCAR-4 ovarian
HL-60(TB) leukemia = system: HL-60(TB) leukemia
OVCAR-8 ovarian = system: OVCAR-8 ovarian
SK-MEL-5 melanoma = system: SK-MEL-5 melanoma
RPMI-8226 leukemia = system: RPMI-8226 leukemia
LOX IMVI melanoma = system: LOX IMVI melanoma
COLO 205 colon = system: COLO 205 colon
NCI/ADR-RES ovarian = system: NCI/ADR-RES ovarian
IGROV1 ovarian = system: IGROV1 ovarian
NCI-H522 lung = system: NCI-H522 lung
HS 578T breast = system: HS 578T breast
RXF 393 renal = system: RXF 393 renal
SK-MEL-2 melanoma = system: SK-MEL-2 melanoma
NCI-H460 lung = system: NCI-H460 lung
A498 renal = system: A498 renal
EKVX NSCLC = system: EKVX NSCLC
NCI-H226 lung = system: NCI-H226 lung
UO-31 renal = system: UO-31 renal

`CCCCCC(C(O)C#N)C(O)(C(F)(F)F)C(F)(F)F` (stereo not drawn) gave a TGI (HT29 colon) greater than 10 µM, a TGI (HOP-62 NSCLC) greater than 10 µM and a TGI (HCT-116 colon) greater than 10 µM. For the same compound, the TGI (NCI-H23 lung) was greater than 10 µM, the TGI (MDA-MB-435) was greater than 10 µM and the TGI (SR leukemia) was greater than 10 µM. The TGI (CAKI-1 renal) was greater than 10 µM, the TGI (SNB-75 CNS) was greater than 10 µM and the TGI (SN12C renal) was greater than 10 µM. For the same compound, the TGI (T-47D breast) was greater than 10 µM, the TGI (UACC-62 melanoma) was greater than 10 µM and the TGI (SK-MEL-28 melanoma) was greater than 10 µM. The TGI (K-562 leukemia) was greater than 10 µM, the TGI (SF-295 CNS) was greater than 10 µM and the TGI (SNB-19 CNS) was greater than 10 µM. For the same compound, the TGI (MDA-N) was greater than 10 µM, the TGI (ACHN renal) was greater than 10 µM and the TGI (OVCAR-5 ovarian) was greater than 10 µM. For the same compound, the TGI (HOP-92 NSCLC) was greater than 10 µM, the TGI (786-0 renal) was greater than 10 µM and the TGI (SK-OV-3 ovarian) was greater than 10 µM. The TGI (SF-539 CNS) was greater than 10 µM, the TGI (SF-268 CNS) was greater than 10 µM and the TGI (MDA-MB-231 breast) was greater than 10 µM. It also gave a TGI (MALME-3M melanoma) greater than 10 µM, a TGI (A549 NSCLC) greater than 10 µM and a TGI (SW-620 colon) greater than 10 µM. It also gave a TGI (KM12 colon) greater than 10 µM, a TGI (BT-549 breast) greater than 10 µM and a TGI (UACC-257 melanoma) greater than 10 µM. For the same compound, the TGI (TK-10 renal) was greater than 10 µM, the TGI (CCRF-CEM leukemia) was greater than 10 µM and the TGI (U251 CNS) was greater than 10 µM. It also gave a TGI (OVCAR-3 ovarian) greater than 10 µM, a TGI (HCT-15 colon) greater than 10 µM and a TGI (M14 melanoma) greater than 10 µM. It also gave a TGI (PC-3 prostate) greater than 10 µM, a TGI (HCC-2998 colon) greater than 10 µM and a TGI (MCF7 breast) greater than 10 µM. It also gave a TGI (DU-145 prostate) greater than 10 µM, a TGI (MOLT-4 leukemia) greater than 10 µM and a TGI (OVCAR-4 ovarian) greater than 10 µM. The TGI (HL-60(TB) leukemia) was greater than 10 µM, the TGI (OVCAR-8 ovarian) was greater than 10 µM and the TGI (SK-MEL-5 melanoma) was greater than 10 µM. For the same compound, the TGI (RPMI-8226 leukemia) was greater than 10 µM, the TGI (LOX IMVI melanoma) was greater than 10 µM and the TGI (COLO 205 colon) was greater than 10 µM. For the same compound, the TGI (NCI/ADR-RES ovarian) was greater than 10 µM, the TGI (IGROV1 ovarian) was greater than 10 µM and the TGI (NCI-H522 lung) was greater than 10 µM. The TGI (HS 578T breast) was greater than 10 µM.
In the case of `NS(=O)(=O)c1nnc(NSc2ccc([N+](=O)[O-])cc2)s1`, the TGI (HOP-62 NSCLC) is reported as greater than 100 µM, the TGI (HCT-116 colon) is reported as greater than 100 µM and the TGI (NCI-H23 lung) is reported as greater than 100 µM. It also gave a TGI (MDA-MB-435) greater than 100 µM, a TGI (SR leukemia) greater than 100 µM and a TGI (RXF 393 renal) greater than 100 µM. It also gave a TGI (CAKI-1 renal) greater than 100 µM, a TGI (SN12C renal) greater than 100 µM and a TGI (T-47D breast) greater than 100 µM. For the same compound, the TGI (UACC-62 melanoma) was greater than 100 µM, the TGI (SK-MEL-28 melanoma) was greater than 100 µM and the TGI (SK-MEL-2 melanoma) was greater than 100 µM. It also gave a TGI (K-562 leukemia) greater than 100 µM, a TGI (SF-295 CNS) greater than 100 µM and a TGI (NCI-H460 lung) greater than 100 µM. The TGI (SNB-19 CNS) was greater than 100 µM, the TGI (A498 renal) was greater than 100 µM and the TGI (MDA-N) was greater than 100 µM. For the same compound, the TGI (ACHN renal) was greater than 100 µM, the TGI (OVCAR-5 ovarian) was greater than 100 µM and the TGI (HOP-92 NSCLC) was greater than 100 µM. The TGI (786-0 renal) was greater than 100 µM, the TGI (SK-OV-3 ovarian) was greater than 100 µM and the TGI (SF-268 CNS) was greater than 100 µM. For the same compound, the TGI (MDA-MB-231 breast) was greater than 100 µM, the TGI (MALME-3M melanoma) was greater than 100 µM and the TGI (A549 NSCLC) was greater than 100 µM. For the same compound, the TGI (SW-620 colon) was greater than 100 µM, the TGI (BT-549 breast) was greater than 100 µM and the TGI (UACC-257 melanoma) was greater than 100 µM. For the same compound, the TGI (EKVX NSCLC) was greater than 100 µM, the TGI (TK-10 renal) was greater than 100 µM and the TGI (U251 CNS) was greater than 100 µM. It also gave a TGI (OVCAR-3 ovarian) greater than 100 µM, a TGI (HCT-15 colon) greater than 100 µM and a TGI (M14 melanoma) greater than 100 µM. The TGI (HCC-2998 colon) was greater than 100 µM, the TGI (MCF7 breast) was greater than 100 µM and the TGI (NCI-H226 lung) was greater than 100 µM. For the same compound, the TGI (DU-145 prostate) was greater than 100 µM, the TGI (MOLT-4 leukemia) was greater than 100 µM and the TGI (OVCAR-4 ovarian) was greater than 100 µM. It also gave a TGI (OVCAR-8 ovarian) greater than 100 µM, a TGI (SK-MEL-5 melanoma) greater than 100 µM and a TGI (UO-31 renal) greater than 100 µM. It also gave a TGI (RPMI-8226 leukemia) greater than 100 µM, a TGI (LOX IMVI melanoma) greater than 100 µM and a TGI (COLO 205 colon) greater than 100 µM. For the same compound, the TGI (NCI/ADR-RES ovarian) was greater than 100 µM, the TGI (NCI-H522 lung) was 44.3 µM and the TGI (HS 578T breast) was greater than 100 µM.
